In patent publication US7229999B2, “Pyridine-3-carboxamide derivatives as CB1 inverse agonists” (Hoffmann-La Roche Inc., priority 2005, dated 2007):
Read-outs that look alike come from different tables or passages of the source.

Columns and labels:
[1] = target: T1, human cannabis CB1 receptor (Homo sapiens, UniProt P21554); test: Affinity for cannabinoid CB1 receptors, [3H]-CP-55,940 radioligand binding on HEK cell membranes
T1 construct: expressed in transfected cells; host or cells: human embryonic kidney (HEK) cells, transient, Semliki Forest Virus system
Description: The affinity of the compounds of the invention for cannabinoid CB1 receptors was determined using membrane preparations of human embryonic kidney (HEK) cells in which the human cannabis CB1 receptor is transiently transfected using the Semliki Forest Virus system in conjunction with [3H]-CP-55,940 as radioligand. After incubation of a freshly prepared cell membrane preparation with the [3H]-ligand, with or without addition of compounds of the invention, separation of bound and free ligand was performed by filtration over glassfiber filters. Radioactivity on the filter was measured by liquid scintillation counting.

[2] = doses of 10 and 20 mg daily; cited from earlier work

T1 sequence (P21554 whole entry): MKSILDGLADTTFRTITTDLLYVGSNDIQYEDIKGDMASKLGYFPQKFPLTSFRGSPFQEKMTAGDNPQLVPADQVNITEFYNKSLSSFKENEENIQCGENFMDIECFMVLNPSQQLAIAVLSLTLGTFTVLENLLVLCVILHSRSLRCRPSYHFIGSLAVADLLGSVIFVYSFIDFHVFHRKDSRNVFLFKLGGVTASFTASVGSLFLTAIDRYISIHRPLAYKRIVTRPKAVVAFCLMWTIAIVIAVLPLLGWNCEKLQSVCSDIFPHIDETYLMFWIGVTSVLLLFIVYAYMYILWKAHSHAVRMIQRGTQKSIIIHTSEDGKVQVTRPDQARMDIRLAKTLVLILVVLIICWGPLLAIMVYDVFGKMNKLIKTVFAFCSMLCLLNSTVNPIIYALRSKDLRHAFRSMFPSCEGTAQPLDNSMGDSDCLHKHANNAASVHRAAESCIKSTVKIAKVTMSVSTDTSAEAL

Compound: CCCCOc1ncc(C(=O)N[C@@H]2CCCC[C@H]2O)cc1-c1cc(C(F)(F)F)ccc1F [Example 2, 6-Butoxy-5-(2-fluoro-5-trifluoromethyl-phenyl)-N-((1R,2R)-2-hydroxy-cyclohexyl)-nicotinamide]
- IC50 ([1]; affinity for the CB1 receptor, read-out: IC50): 186 nM
- melting point: 172 to 178 °C

Compound: O=C(N[C@@H]1CCCC[C@H]1O)c1cnc(OCC2CC2)c(-c2cc(C(F)(F)F)ccc2F)c1 [Example 7, 6-Cyclopropylmethoxy-5-(2-fluoro-5-trifluoromethyl-phenyl)-N-((1R,2R)-2-hydroxy-cyclohexyl)-nicotinamide]
- IC50 [1]: 102 nM

Compound: CCCCOc1ncc(C(=O)N[C@@H]2CCCC[C@H]2O)cc1-c1ccc(Cl)cc1 [Example 3, 6-Butoxy-5-(4-chloro-phenyl)-N-((1R,2R)-2-hydroxy-cyclohexyl)-nicotinamide]
- IC50 [1]: 39 nM

Compound: Cc1c(C(=O)NN2CCCCC2)nn(-c2ccc(Cl)cc2Cl)c1-c1ccc(Cl)cc1 [SR 141716]
- body weight compared to placebo [2]: significantly reduced body weight
